pIC50: −log10 of the molar value.
Columns and labels:
Type in all cases: cell-based
[1] = test system: HCT-116 tumor cells; assay: Cell proliferation inhibition assay (MTT), HCT-116; settings: HCT-116 cells, 48 hours
Experimental: (§1) Case Study I: Antitumor Cell Activity of Naphthalene Diamides • Compounds of Tables 1 and 2 were synthesized in multiple steps according to the procedure of Examples 1-3 using relevant antitumor cell activity assays. The compound synthesized above was tested for IC50 concentration (MIC) against HCT-116, MCF-7, Calu-6 and A549 tumor cells by in vitro cellular activity.
(§2) Case Study II: Cell Proliferation Inhibition Assay • Based on MTT method, briefly plating HCT-116, MCF-7 and A549 cells in a concentration of 2×10^4/ml with complete culture medium in 96-well plates overnight. The volume for each well was 100 μL. Cells were treated with compounds in concentrations of 40, 20, 10, 5, 2.5, 1.25 μmol/L, and cultured at 37° C., 5% CO2 for 48 hours, followed by adding 20 μL of 5 mg/ml MTT reagent per well and continuing to culture for 2˜4 h, respectively. As a control, DMSO solvent was added in an equal volume with concentration of 0.1%. Each sample was tested as 5 replicate wells. Then the supernatant was discarded, and DMSO was added in a volume of 150 μL, followed by shaking and mixing for 15 mins. The absorbance (A) value (A value is proportional to the number of living cells) is measured by a microplate reader at the wavelength of 570 nm, and the average value is taken. The relative cell proliferation inhibition rate (%)=(control group A570—experimental group A570)/control group A570×100%. The concentration of 50% inhibition rate (IC50) of the compound was calculated by the repetition of at least 3 times. The positive control was used as 5-flucrouracil.

[2] = test system: MCF-7 tumor cells; assay: Cell proliferation inhibition assay (MTT), MCF-7; settings: MCF-7 cells, 48 hours
Experimental: as §1, §2

[3] = test system: A549 tumor cells; assay: Cell proliferation inhibition assay (MTT), A549; settings: 48 hours
Experimental: as §1, §2

[4] = test system: Calu-6 tumor cells; assay: In vitro antitumor cell activity, Calu-6; settings: Calu-6 cells
Experimental: as §1, §2

| Structure (SMILES) | pIC50 [1] | pIC50 [2] | pIC50 [3] | pIC50 [4] |
| --- | --- | --- | --- | --- |
| COc1ccc(OC)c(C(=O)Nc2ccc3cc(C(=O)NCc4ccc(Cl)nc4)ccc3c2)c1 [ABC-15] | 5.18 | 5.46 |  |  |
| O=C(Nc1ccc2cc(C(=O)Nc3nccs3)ccc2c1)c1cccc(C(F)(F)F)c1 [ABC-34] | 5.28 | 5.80 |  |  |
| COc1ccc(C(=O)Nc2ccc3cc(C(=O)Nc4nccs4)ccc3c2)cc1 [ABC-31] |  | 5.41 |  |  |
| O=C(Nc1ccc2cc(C(=O)Nc3nccs3)ccc2c1)c1cccc(Cl)c1 [ABC-45] | 5.00 | 5.17 | 5.37 | 4.90 |
| O=C(Nc1ccc2cc(C(=O)N3CCOCC3)ccc2c1)c1ccc(Cl)c(Cl)c1 [ABC-40] |  |  |  | 4.91 |
| Cc1cccc(C(=O)Nc2ccc3cc(C(=O)Nc4nccs4)ccc3c2)c1 [ABC-32] | 5.26 | 5.54 | 4.85 | 4.55 |
| COc1ccc(C(=O)Nc2ccc3cc(C(=O)NC(C)C)ccc3c2)cc1 [ABC-29] | 5.10 |  |  |  |
| Cc1cccc(C(=O)Nc2ccc3cc(C(=O)NCc4ccc(Cl)nc4)ccc3c2)c1 [ABC-09] | 5.46 | 5.49 |  |  |
| CN1CCN(C(=O)c2ccc3cc(NC(=O)c4cccc(C(F)(F)F)c4)ccc3c2)CC1 [ABC-20] | 4.60 | 5.57 |  |  |
| Cc1cccc(C(=O)Nc2ccc3cc(C(=O)N4CCN(C)CC4)ccc3c2)c1 [ABC-05] | 5.00 |  |  |  |
| CC(C)NC(=O)c1ccc2cc(NC(=O)c3cccc(Cl)c3)ccc2c1 [ABC-47] | 5.60 |  | 4.91 |  |
| O=C(Nc1ccc2cc(C(=O)NC3CC3)ccc2c1)c1cccc(C(F)(F)F)c1 [ABC-28] | 5.30 |  |  |  |
| O=C(Nc1ccc2cc(C(=O)Nc3cccc(C(F)(F)F)c3)ccc2c1)c1cccc(C(F)(F)F)c1 [ABC-26] | 5.46 |  |  |  |
| O=C(Nc1ccc2cc(C(=O)N3CCOCC3)ccc2c1)c1ccc(F)cc1 [ABC-11] | 5.26 | 5.43 | 4.55 |  |
| CN1CCN(C(=O)c2ccc3cc(NC(=O)c4ccc(Cl)c(Cl)c4)ccc3c2)CC1 [ABC-42] | 4.70 |  | 5.43 | 5.15 |
| O=C(Nc1ccc2cc(C(=O)Nc3nccs3)ccc2c1)c1ccc(F)cc1 [ABC-02] | 5.00 |  |  |  |
| O=C(Nc1ccc2cc(C(=O)NC3CCCCC3)ccc2c1)c1cccc(C(F)(F)F)c1 [ABC-24] | 5.30 |  |  |  |
| O=C(Nc1ccc2cc(C(=O)Nc3nccs3)ccc2c1)c1ccc(Cl)c(Cl)c1 [ABC-46] | 5.70 | 5.21 | 5.80 |  |
| O=C(Nc1ccc2cc(C(=O)NC3CC3)ccc2c1)c1cccc(Cl)c1 [ABC-43] |  |  | 4.60 | 4.60 |
| O=C(Nc1ccc2cc(C(=O)NC3CC3)ccc2c1)c1ccc(F)cc1 [ABC-21] |  |  | 4.31 | 4.31 |
| O=C(NCc1ccc(Cl)nc1)c1ccc2cc(NC(=O)c3cccc(C(F)(F)F)c3)ccc2c1 [ABC-17] | 5.44 | 5.49 |  |  |
| COc1ccc(C(=O)Nc2ccc3cc(C(=O)Nc4cccc(C(F)(F)F)c4)ccc3c2)cc1 [ABC-33] | 5.52 | 5.18 |  |  |
| O=C(Nc1ccc2cc(C(=O)NC3CC3)ccc2c1)c1ccc(Cl)c(Cl)c1 [ABC-44] |  |  |  | 5.26 |
| CC(C)NC(=O)c1ccc2cc(NC(=O)c3ccc(Cl)c(Cl)c3)ccc2c1 [ABC-48] | 5.41 |  | 4.90 |  |
| COc1ccc(C(=O)Nc2ccc3cc(C(=O)NC4CC4)ccc3c2)cc1 [ABC-27] | 4.41 | 5.58 |  |  |
| COc1ccccc1C(=O)Nc1ccc2cc(C(=O)NC(C)C)ccc2c1 [ABC-38] | 5.30 | 5.05 |  |  |
| O=C(NCc1ccc(Cl)nc1)c1ccc2cc(NC(=O)c3ccc(F)cc3)ccc2c1 [ABC-07] | 5.24 | 5.12 |  |  |
